Data taken from US20090325920A1, “METHODS FOR THE TREATMENT OF A TRAUMATIC CENTRAL NERVOUS SYSTEM INJURY” (priority 2005, published 2009).

System: adults with blunt TBI, Glasgow Coma Scale score 4-12
Test: Phase II randomized placebo-controlled trial in acute TBI: signals of activity, 30-day outcomes (Example 3)
Assay type: in vivo, human
Details: for All cause mortality (ITT): intention to treat, n=77
From the text: In addition to monitoring subjects for signs of harm, we hoped to detect signals of activity. […] For this preliminary study, our primary outcome of interest was Glasgow Outcome Scale Extended (GOSE) 30 days post-injury. […] Thirty days following each injury event, we assessed each patient's Glasgow Outcome Score Extended (GOSE) and Disability Rating Scale (DRS). Patients who were severely impaired were classified as “not testable”-a surrogate marker for a poor outcome. Reliability codes were used to record reasons for non-administration of a particular measure, such as physical impairment (e.g., hemiparesis) cognitive impairment (e.g., could not understand instructions), or intoxication. One-year outcomes will be reported at a later date. […] Our secondary aim was to look for signs of drug activity by assessing several measures of outcome. Our a priori primary measure of outcome was the Glasgow Outcome Scale-Extended ([…] et al. (1998) Journal of Neurotrauma 15(8):587-597). […] (1987) Journal of Neurosurgery 67(6):832-840) and 5) the Disability Rating Scale (DRS) (Hall et al. […] Variables determined to be independently associated with all-cause mortality or CNS related-death, such as iGCS (dichotomized into moderate versus severe), injury severity score and Marshall CT score were incorporated in a stepwise logistic regression analyses. Because GCS often fluctuates during the first few hours after injury, additional stepwise logistic regressions were performed using dichotomized GCS 1 day post-injury.

[1] = 30 days post injury, treatment received
[2] = Index GCS = 9-12, 30 days post injury

## CC(=O)[C@H]1CC[C@H]2[C@@H]3CCC4=CC(=O)CC[C@]4(C)[C@H]3CC[C@]12C [progesterone, pregn-4-ene-3,20-dione]
30 days post injury
  Dichotomized Glasgow Outcome Score - Extended: Dead to Upper Severe: 70.0%
  Dichotomized Glasgow Outcome Score - Extended: good or moderate recovery: 30.0%
  Glasgow Outcome Score - Extended: Dead: 14.2%
  Glasgow Outcome Score - Extended: Lower Good: 4.3%
  Glasgow Outcome Score - Extended: Lower Moderate: 11.4%
  Glasgow Outcome Score - Extended: Lower Severe: 40.0%
  Glasgow Outcome Score - Extended: Upper Good: 4.3%
  Glasgow Outcome Score - Extended: Upper Moderate: 10.0%
  Glasgow Outcome Score - Extended: Upper Severe: 8.6%
  Glasgow Outcome Score - Extended: Vegetative State: 7.1%
  All cause mortality (ITT): 13%
30 days post injury, listed as Progesterone
  All cause mortality (ITT): 13.0%
[1]
  All cause mortality (TR): 11.8%
  Neurological deaths: 5.3%
  Non-neurological deaths: 6.6%
30 days post-injury
  dichotomized GOSE versus placebo: did not significantly differ between groups
Index GCS = 4-8, 30 days post injury
  Disability Rating Score: Total DRS, mean: 10.7
[2]
  Disability Rating Score: Employ, mean: 1.8
  Disability Rating Score: Function, mean: 1.5
  Disability Rating Score: Total DRS, mean: 5
Initial GCS = 4-8
  Duration of Coma, mean: 10.1 days
  Duration of Post-Traumatic Amnesia, mean: 18.6 days
Initial GCS = 4-8, listed as Progesterone
  Duration of Coma, mean: 10.11 days
Initial GCS = 9-12
  Duration of Coma, mean: 4.1 days
  Duration of Post-Traumatic Amnesia, mean: 10.7 days
First 4 days post-injury, subjects with monitors in place, not statistically significant
  trend of mean intracranial pressure levels: remained stable
Infusion day 0
  Intracranial Pressure, mean: 16.0 mm Hg
Infusion day 1
  Intracranial Pressure, mean: 17.1 mm Hg
Infusion day 2
  Intracranial Pressure, mean: 15.4 mm Hg
Infusion day 3
  Intracranial Pressure, mean: 16.0 mm Hg
Infusion day 4
  Intracranial Pressure, mean: 17.7 mm Hg
Moderately brain-injured patients, 30 days post-injury
  DRS scores versus placebo: significantly better DRS scores
Treatment received
  Survived > 30 days: 88.2%
